# Assay results published in EP0393104B1, “MEASUREMENT OF PGE 2 (PROSTAGLANDIN E 2) LEVELS IN PATIENTS WITH CHRONIC INFLAMMATORY BOWEL DISEASE” (priority 1987, dated 1989).
# Tests used:
# [1] = tested on: ulcerative colitis and Crohn's colitis; assay: Open one-year dose-escalation study of ADS: efficacy, tolerance and safety; assay type: in vivo, patients; conditions: for patients who experienced a relapse: remaining UC patients
# Excerpt: Patients fulfilling the following entry criteria were candidates for the study: (a) proven UC or proven CC; (b) relapsing disease (i.e., a relapse within the past six months) or chronic continous disease activity (i.e. absence of remission (definition: see below) for three months or more); (c) refractory to SAZ (i.e., relapsing disease despite maintenance treatment with SAZ 2 g/day or chronic continous disease despite treatment with glucocorticoids and SAZ) or intolerant of SAZ (i.e., allergic to or otherwise intolerant of SAZ).
# The study design was open with an initial dose of ADS 1 g/day (0.5 g b.i.d.), in SAZ intolerant patients. In SAZ refractory patients the initial dose was 2 g/day (1 g b.i.d.). […] In patients on concomitant corticosteroids the dose was gradually tapered and, if possible, the administration was stopped.
# (§1) Aone year treatment period was planned including scheduled visits at two weeks and at two, four, six, eight, ten, and 12 months, in addition to in-between visits, if needed. Before entry and at each visit the clinical disease activity was assessed (see below) and a laboratory screening was done. This included blood haemoglobin, reticulocyte count, erythrocyte sedimentation rate, leucocyte count, leucocyte differential count, platelet count, serum concentrations of Na, K, Ca, albumin, creatinine, urea, alanine aminotransferase, lactate dehydrogenase, alkaline phosphatase, bilirubin, and plasma prothrombin, in addition to urine analysis for protein and glucose and microscopy for erythrocytes, leukocytes, and casts.
# The clinical activity was based on a diary and the objective findings registered by the investigator. To minimize variation among observers each patient was examined on all study days by the same investigator. All days the week preceeding a scheduled visit the patient recorded the number of bowel movements in the diary, in addition to the presence or absence of blood, and graded abdominal pain and general well-being according to W. R. Best, J. M. Becktel, J. W. Singleton, 'Rederived values of the eight coefficients of the Crohn's Disease Activity Index (CDAI)', 1979 Gastroenterology, 77:843-6) for calculation of the Crohn's disease activity index (CDAI). […] Remission in patients with CC was defined as a CDAI <150 and no evidence of inflammation on sigmoidoscopy. […] Due to the open design of the study no further clinical or endoscopic estimations of efficacy were done.
# [2] = HPLC of ADS, 5-ASA and Ac-5-ASA in faecal dialysates (equilibrium in vivo dialysis of faeces); set-up: species or system patients; conditions: for concentration: ulcerative colitis, read-out: Concentrations in faecal dialysates
# Protocol: (§2) Before entry, at the two week's visit, and at the six and 12 months' visits equilibrium in vivo dialysis of faeces as well as equilibrium in vivo dialysis of rectum were done prior to endoscopy of rectum and sigmoid colon with biopsies. ADS was administered in gelatin capsules, each containing 250 mg of the powdered drug without additives.
# (§3) Equilibrium in vivo dialysis of faeces was done as previously described in detail by pooling the contents of five swallowed dialysis bags following their intestinal transit (faecal dialysate).
# (§4) The lower detection limits in serum and in faecal dialysates were 1.0 umol/I and 6.0 umol/l, respectively. Prostaglandin E2 was measured by the radioimmunologic method, referred to above, validated by gas chromatography-mass spectrometry. These measurements were done blindly and independently of the assessment of disease activity and clinicians were unaware of the results until the data had been completed.
# [3] = HPLC of ADS, 5-ASA and Ac-5-ASA in serum; assay type: in vivo, patients; conditions: ulcerative colitis, read-out: Concentrations in serum
# Protocol: as §1, §4
# PGE2 [4] = assay: Equilibrium in vivo dialysis of faeces with radioimmunoassay of PGE2 (ADS study); set-up: species or system patients; conditions: mean±SD
# Protocol: as §2, §3, §4
# PGE2 [5] = assay: Equilibrium in vivo dialysis of rectum with radioimmunoassay of PGE2 (ADS study); set-up: species or system patients; conditions: mean±SD
# Protocol: as §2
# Equilibrium in vivo dialysis of rectum was performed after insertion of a 12-cm-long dialysis bag into the emptied rectum as previously described (K. Lauritsen, L.S. Laursen, K. Bukhave, J. Rask-Madsen, "Effects of topical 5-aminosalicylic acid and prednisolone on prostaglandin E2 and leukotriene B4 levels determined by equilibrium in vivo dialysis of rectum in relapsing ulcerative colitis, Gastroenterology 1986;91:837-844). The bag was left for four hours and its contents (rectal dialysate) were analyzed for concentrations of PGE2 (rectal PGEZ).
# as §4
# ulcerative colitis = conditions: human, in vivo, po; cited from earlier work
# [6] = tested on: ulcerative proctosigmoiditis; assay type: in vivo, patients
# Protocol: For patients maintained on SAZ (1 g b.i.d.) this treatment was kept unchanged throughout the trial. No other drugs were given.
# (§5) The study was carried out as a block-randomized, double-blind trial. Before entry, clinical disease activity was assessed, and equilibrium in vivo dialysis of rectum was performed before the assessment of endoscopic and histologic disease activity. […] Primary stratification was done for patients already on maintenance treatment with SAZ. At day 15 the equilibrium in vivo dialysis of rectum was repeated, and clinical, endoscopic, and histologic activities were reassessed. Patients in complete clinical and endoscopic remission discontinued treatment with enemas, whereas the remainder continued therapy for another 14 days. In all cases equilibrium in vivo dialysis of rectum and assessment of disease activity were repeated at day 29. Withdrawal criteria included intolerance to treatment or deterioration (severe disease, C3) requiring systemic glucocorticoids.
# The clinical activity was based on a diary in which the number of bowel movements and the presence or absence of blood were registered by the patient and the objective findings were registered by the investigator. To minimize variation among observers each patient was examined on all study days by the same investigator, who was unaware of the results of the rectal dialyses.
# PGE2 [7] = assay: Equilibrium in vivo dialysis of rectum with radioimmunoassay of PGE2 (enema trial); set-up: species or system patients; conditions: for Concentrations of PGE2 in rectal lumen: median, enema groups irrespective of SAZ (+/-), SAZ line = no enema, with SAZ maintenance; for effect of treatment with enemas on PGE2 concentrations in the rectal lumen: whole group, active UC, 2-4 weeks, 5-ASA p>0.5, prednisolone p<0.05 (Wilcoxon)
# Protocol: as §5
# In vivo dialysis of rectum was performed after insertion of a 12-cm-long dialysis bag (volume 4 ml; Visking seamless cellulose tubing 8/32 filled with Rheomacrodex@; Pharmacia, Uppsala, Sweden) containing 10% dextran (mean mol wt 40,000) in saline into the emptied rectum. To obtain equilibrium with the fluid covering the surface of rectal mucosa, the dialysis bag was left for 4 h before its contents were emptied into a test tube, which was stored immediately at -20°C (rectal dialysate) for analysis within 2 wk.
# Prostaglandin E2 was measured as previously described in detail (K. Bukhave, J. Rask-Madsen J, 'Prostaglandin E2 in jejunal fluids and its potential diagnostic value for selecting patients with indomethacin-sensitive diarrhoea', 1981 European Journal of Clinical Investigation, 11:191-7) by a radioimmunologic method validated by gas chromatography-mass spectrometry (K. Bukhave, K Green, J. Rask-Madsen, 'Comparison of radioimmunological determinations with gas chromatography mass spectrometry dosage', 1983 Biomedical Mass Spectrometry, 10:265-8). The method included purification by extraction with ethylacetate/cyclo- hexane (1:1) and chromatography on microcolumns of Sephadex LH-20 (Pharmacia AB, Sweden) before performing the radioimmunoassay itself on the eluate fraction containing PGE2.
# [8] = number of patients, enemas once daily 2-4 wk, 5-ASA n=13, prednisolone n=11
# [9] = number of these patients on additional SAZ maintenance (figure in brackets)
# [10] = clinical activity 2-3 (moderate-severe)
# [11] = endoscopic activity 0 (inactive)
# [12] = endoscopic activity 2 (moderate)
compound,measurement,setting,value
"O=C(O)c1cc(N=Nc2ccc(O)c(C(=O)O)c2)ccc1O [Olsalazine, disodium-azodisalicylate]",withdrawals due to drug intolerance,"[1]; 40 patients, ADS 1-4 g/day up to one year",No patients were withdrawn due to drug intolerance
same,treatment failures,[1]; UC patients intolerant of SAZ,one of eight
same,treatment failures,"[1]; UC patients refractory to SAZ, of 23",12
same,slightly increased levels of alanine aminotransferase or alkaline phosphatase,[1]; in vivo,six cases
same,treatment failures (CDAI <150 without sigmoidoscopic evidence of inflammation never obtained),[1]; patients with CC,Five of the nine
same,treatment failures (clinical and sigmoidoscopic remission never obtained),[1]; patients with UC (n=31),Thirteen patients
same,patients who experienced a relapse,[1]; on 1 g/day,four
same,patients who experienced a relapse,[1]; on 2 g/day,two
same,patients who experienced a relapse,[1]; on 3 g/day,eight
same,patients who experienced a relapse,[1]; on 4 g/day,two
same,concentration,"[2]; Olsalazine dose/day 1 g (n=7), mean±SD of averages in each patient",100 ± 140 µM
same,concentration,"[2]; Olsalazine dose/day 2 g (n=20), mean±SD",340 ± 480 µM
same,concentration,"[2]; Olsalazine dose/day 3 g (n=14), mean±SD",400 ± 580 µM
same,concentration,"[2]; Olsalazine dose/day 4 g (n=18), mean±SD",270 ± 410 µM
same,"patients in whom the split ratio was below 90%, at least on one occasion",[2]; of all patients,28%
same,concentration,"[3]; Olsalazine dose/day 1 g (n=9), mean±SD of average in each patient",9.2 ± 3.4 µM
same,concentration,"[3]; Olsalazine dose/day 2 g (n=14), mean±SD",16 ± 6.8 µM
same,concentration,"[3]; Olsalazine dose/day 3 g (n=20), mean±SD",22 ± 8.1 µM
same,concentration,"[3]; Olsalazine dose/day 4 g (n=20), mean±SD",25 ± 11 µM
same,Fecal PGE2 levels,"PGE2 [4]; Crohn's colitis (n=9), Month 6, Entry 1.76±1.94",0.70±0.68 (0.08-1.81) ng/ml
same,Fecal PGE2 levels,"PGE2 [4]; Crohn's colitis (n=9), Month 12, Entry 1.76±1.94",1.23±2.06 (0.04-5.39) ng/ml
same,Fecal PGE2 levels,"PGE2 [4]; Ulcerative colitis, SAZ intolerant, n=8, Month 6, Entry 1.09±1.18",0.48±0.85 (0.04-2.55) ng/ml
same,Fecal PGE2 levels,"PGE2 [4]; Ulcerative colitis, SAZ intolerant, n=8, Month 12, Entry 1.09±1.18, p<0.05",0.16±0.05 (0.08-0.22) ng/ml
same,Fecal PGE2 levels,"PGE2 [4]; Ulcerative colitis, SAZ refractory, n=23, Month 6, Entry 1.65±1.80, normal range <0.5, p<0.05",0.44±1.03 (0.05-4.72) ng/ml
same,Fecal PGE2 levels,"PGE2 [4]; Ulcerative colitis, SAZ refractory, n=23, Month 12, Entry 1.65±1.80, p<0.05",0.77±1.09 (0.06-3.73) ng/ml
same,Rectal PGE2 levels,"PGE2 [5]; Crohn's colitis (n=9), Month 6, Entry 4.0±5.1",5.0±4.8 (0.4-13.0) ng/ml
same,Rectal PGE2 levels,"PGE2 [5]; Crohn's colitis (n=9), Month 12, Entry 4.0±5.1",3.0±5.7 (0.1-14.6) ng/ml
same,Rectal PGE2 levels,"PGE2 [5]; Ulcerative colitis, SAZ intolerant, n=8, Month 6, Entry 8.5±15.0",5.7±11.9 (0.15-32.6) ng/ml
same,Rectal PGE2 levels,"PGE2 [5]; Ulcerative colitis, SAZ intolerant, n=8, Month 12, Entry 8.5±15.0",1.6±2.0 (0.32-5.3) ng/ml
same,Rectal PGE2 levels,"PGE2 [5]; Ulcerative colitis, SAZ refractory, n=23, Month 6, Entry 16.0±15.3, normal range <0.6, p<0.05",8.1±12.3 (0.05-42.8) ng/ml
same,Rectal PGE2 levels,"PGE2 [5]; Ulcerative colitis, SAZ refractory, n=23, Month 12, Entry 16.0±15.3",13.6±15.4 (0.12-49.0) ng/ml
same,loose or watery stools (major adverse effect),ulcerative colitis,10%
"C[C@]12C=CC(=O)C=C1CC[C@@H]1[C@@H]2[C@@H](O)C[C@@]2(C)[C@H]1CC[C@]2(O)C(=O)CO [Prednisolone, prednisolone]",Outcome of treatment: Clinical and endoscopic remission,"[6]; number of patients, enemas once daily 2-4 wk, 5-ASA 1000 mg (n=13), prednisolone 25 mg (n=11)",8
same,Outcome of treatment: Clinical but not endoscopic remission,[6]; [8],1 (1)
same,Outcome of treatment: Unchanged or worse,[6]; [8],2 (2)
same,Outcome of treatment: Clinical and endoscopic remission (on SAZ),[6]; number of these patients on additional SAZ maintenance 2 g/day (figure in brackets),3
same,Outcome of treatment: Clinical but not endoscopic remission (on SAZ),[6]; [9],1 (1)
same,Outcome of treatment: Unchanged or worse (on sulfasalazine),[6]; [9],2 (2)
same,Concentrations of PGE2 in rectal lumen,PGE2 [7]; clinical activity 0 (inactive),1.6(n=9) (0.16-5.0) ng/ml
same,Concentrations of PGE2 in rectal lumen,PGE2 [7]; clinical activity 1 (mild),5.4(n=6) (0.58-42) ng/ml
same,Concentrations of PGE2 in rectal lumen,PGE2 [7]; [10],9.5(n=3) (5.9-12) ng/ml
same,Concentrations of PGE2 in rectal lumen,PGE2 [7]; [11],0.82(n=8) (0.16-5.0) ng/ml
same,Concentrations of PGE2 in rectal lumen,PGE2 [7]; endoscopic activity 1 (mild),2.8(n=7) (0.57-3.9) ng/ml
same,Concentrations of PGE2 in rectal lumen,PGE2 [7]; [12],10.5(n=3) (5.5-42) ng/ml
same,effect of treatment with enemas on PGE2 concentrations in the rectal lumen,PGE2 [7],inhibited PGE2 concentrations significantly
"Nc1ccc(O)c(C(=O)O)c1 [5-ASA, 5-amino-salicylic acid]",difficulties in retaining the enemas,"[6]; human, in vivo",2
same,Outcome of treatment: Unchanged or worse,[6]; [8],6
same,Outcome of treatment: Unchanged or worse (on sulfasalazine),[6]; [9],3
same,Concentrations of PGE2 in rectal lumen,PGE2 [7]; clinical activity 0 (inactive),0.71(n=7) (0.18-6.0) ng/ml
same,Concentrations of PGE2 in rectal lumen,PGE2 [7]; clinical activity 1 (mild),24(n=5) (2.5-58) ng/ml
same,Concentrations of PGE2 in rectal lumen,PGE2 [7]; [10],33(n=8) (14-120) ng/ml
same,Concentrations of PGE2 in rectal lumen,PGE2 [7]; [11],0.75(n=3) (0.18-3.7) ng/ml
same,Concentrations of PGE2 in rectal lumen,PGE2 [7]; endoscopic activity 1 (mild),5.5(n=4) (0.29-6.2) ng/ml
same,Concentrations of PGE2 in rectal lumen,PGE2 [7]; [12],24(n=8) (2.5-58) ng/ml
same,Concentrations of PGE2 in rectal lumen,PGE2 [7]; endoscopic activity 3 (severe),31(n=5) (20-120) ng/ml
same,PGE2 levels in the rectal lumen,PGE2 [7]; only those patients responding to treatment,decreased toward control levels
same,effect of treatment with enemas on PGE2 concentrations in the rectal lumen,PGE2 [7],No significant effects
